This note sets out measurements from ChEMBL document CHEMBL4411324, “Comprehensive structure-activity-relationship of azaindoles as highly potent FLT3 inhibitors” (Bioorg Med Chem, 2019).

SMILES strings stand for the structures.

For one series, the system named is Receptor-type tyrosine-protein kinase FLT3 (Homo sapiens), P36888 [UNDEFINED MUTATION]. The experiment in a line: Inhibition of recombinant human N-terminal GST/His6-fused FLT3 ITD mutant (R571 to S993 residues) expressed in Sf9 insect cells assessed as residual activity at 2 uM using ULightTM-TK peptide as substrate incubated for 90 mins under dark condition by FRET assay relative to control.
Sequence of Receptor-type tyrosine-protein kinase FLT3 (Homo sapiens), P36888 [UNDEFINED MUTATION] (P36888 whole entry, looked up, stated change not applied, the tested form may be a part): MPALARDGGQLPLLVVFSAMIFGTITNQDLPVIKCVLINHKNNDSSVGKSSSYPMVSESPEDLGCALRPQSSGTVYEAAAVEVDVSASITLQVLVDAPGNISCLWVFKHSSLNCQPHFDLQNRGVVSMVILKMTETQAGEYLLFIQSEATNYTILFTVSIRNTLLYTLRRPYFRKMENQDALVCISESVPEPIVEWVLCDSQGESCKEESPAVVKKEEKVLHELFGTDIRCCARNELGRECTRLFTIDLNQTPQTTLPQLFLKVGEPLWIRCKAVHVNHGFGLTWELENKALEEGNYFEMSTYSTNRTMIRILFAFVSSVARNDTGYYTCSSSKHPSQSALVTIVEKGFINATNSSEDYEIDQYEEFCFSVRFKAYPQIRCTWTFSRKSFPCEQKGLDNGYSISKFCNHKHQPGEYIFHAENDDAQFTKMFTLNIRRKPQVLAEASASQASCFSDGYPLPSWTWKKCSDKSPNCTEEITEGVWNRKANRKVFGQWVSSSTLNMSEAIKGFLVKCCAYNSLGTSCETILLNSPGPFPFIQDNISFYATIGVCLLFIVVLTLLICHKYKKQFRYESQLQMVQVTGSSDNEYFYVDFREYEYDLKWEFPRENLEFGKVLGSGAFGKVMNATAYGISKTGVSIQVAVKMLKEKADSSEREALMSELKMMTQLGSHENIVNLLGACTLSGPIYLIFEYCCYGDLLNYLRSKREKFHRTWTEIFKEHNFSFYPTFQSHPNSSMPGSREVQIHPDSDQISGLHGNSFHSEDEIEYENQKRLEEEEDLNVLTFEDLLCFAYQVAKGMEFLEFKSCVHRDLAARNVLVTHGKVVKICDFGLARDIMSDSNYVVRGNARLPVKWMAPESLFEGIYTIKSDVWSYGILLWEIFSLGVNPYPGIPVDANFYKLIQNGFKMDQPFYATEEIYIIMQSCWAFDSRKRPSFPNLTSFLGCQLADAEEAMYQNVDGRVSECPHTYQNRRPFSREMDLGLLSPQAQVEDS
Conditions: not given
Turning to `O=S(=O)(NCCNC/C=C/c1ccc(-c2cnc3ccccc3c2)cc1)c1cccc2cnccc12`, the Activity was determined as 9%.
The same measure, in the same setting: the figure for `O=S(=O)(NCCNC/C=C/c1ccc(-c2cccnc2)cc1)c1cccc2cnccc12` is 13%; for `O=S(=O)(NCCNC/C=C/c1ccc(-c2cncnc2)cc1)c1cccc2cnccc12` it is 13%.
Still for that read-out and setting: the result for `O=S(=O)(NCCNC/C=C/c1ccc(-c2cn[nH]c2)cc1)c1cccc2cnccc12` reads 14%.

In the next series the target is Receptor-type tyrosine-protein kinase FLT3 (Homo sapiens, UniProt P36888, ITD). The experiment in a line: Inhibition of recombinant human N-terminal GST/His6-fused FLT3 ITD mutant (R571 to S993 residues) expressed in Sf9 insect cells assessed as residual activity using ULightTM-TK peptide as substrate incubated for 90 mins under dark condition by FRET assay.
Sequence of Receptor-type tyrosine-protein kinase FLT3 (P36888 whole entry, looked up, stated change not applied, the tested form may be a part): as above
Conditions: not given
The IC50 is the point on the concentration scale where inhibition reaches its midpoint. `COc1ccc(S(=O)(=O)NCCNC(=O)CCc2ccc(-c3cnc4[nH]ccc4c3)cc2)cc1`: the 50% inhibitory concentration (IC50) is 1.82 nM.
On the same count and under the same terms, the figure for `O=[N+]([O-])c1ccccc1S(=O)(=O)NCCNC/C=C/c1ccc(-c2cccnc2)cc1` is 8.51 nM; for `CNC(=O)c1ccc(S(=O)(=O)NCCNC/C=C/c2ccc(-c3cccnc3)cc2)cn1` it is 13.8 nM; for `CN(CCNCCCc1ccc(-c2cccnc2)cc1)S(=O)(=O)c1cccc2cnccc12` it is 47.9 nM.
Still for that read-out and setting: the figure for `Nc1nccc2c(S(=O)(=O)NCCNC/C=C/c3ccc(-c4cccnc4)cc3)cccc12` is 24 nM; for `CN(C/C=C/c1ccc(-c2cccnc2)cc1)CCNS(=O)(=O)c1cccc2cnccc12` it is 135 nM.
The same measure, in the same setting: the result for `Nc1cc2c(S(=O)(=O)NCCNC/C=C/c3ccc(-c4cccnc4)cc3)cccc2cn1` reads 19.5 nM; that for `O=C(CCc1ccc(-c2cnc3[nH]ccc3c2)cc1)NCCNS(=O)(=O)c1ccccc1Cl`, 0.479 nM; that for `O=C(CCc1ccc(-c2cnc3[nH]ccc3c2)cc1)NCCNS(=O)(=O)c1cccc(C(F)(F)F)c1`, 4.27 nM.
With `O=C(CCc1ccc(-c2cccnc2)cc1)NCCNS(=O)(=O)c1cccc2cnccc12`, the half-inhibitory concentration (IC50) is 32.4 nM.
Still for that read-out and setting: the figure for `O=S(=O)(NCCNCc1ccc2cc(-c3cccnc3)ccc2c1)c1cccc2cnccc12` is 562 nM; for `O=S(=O)(NCCOCCCc1ccc(-c2cccnc2)cc1)c1cccc2cnccc12` it is 38.9 nM; for `O=C1NCc2ccc(S(=O)(=O)NCCNC/C=C/c3ccc(-c4cccnc4)cc3)cc21` it is 47.9 nM.
On the same count and under the same terms, the figure for `O=S(=O)(NCCNCCc1ccc(-c2cccnc2)cc1)c1cccc2cnccc12` is 269 nM; for `O=S(=O)(NCCNCCCc1ccc(-c2cnc3[nH]ccc3c2)cc1)c1ccc(Cl)cc1` it is 4.37 nM; for `O=S(=O)(NCCNC/C=C/c1ccc(-c2cccnc2)cc1)c1ccc2cn[nH]c2c1` it is 17 nM.
Still for that read-out and setting: the figure for `CNC(=O)c1ncccc1-c1ccc(CCC(=O)NCCNS(=O)(=O)c2cccc3cnccc23)cc1` is more than 10000 nM; for `O=S(=O)(NCCNC/C=C/c1ccc(-c2ccccc2)cc1)c1cccc2cnccc12` it is more than 10000 nM.
Take `Nc1ccc(-c2ccc(CCC(=O)NCCNS(=O)(=O)c3cccc4cnccc34)cc2)cn1`: the IC50 is 23.4 nM.
For the compound `O=C(CCc1ccc(-c2cnc3[nH]ccc3c2)cc1)NCCNS(=O)(=O)c1ccc(Cl)cc1`, the IC50 was 2.4 nM.
Same read-out and setting: the result for `O=S(=O)(NCCNC/C=C/c1ccc(-c2cccnc2)cc1)c1cccc2cnccc12` reads 9.55 nM; that for `O=S(=O)(NCCNCCCc1ccc(-c2cnc3[nH]ccc3c2)cc1)c1ccccc1`, 1.32 nM; that for `O=C(CCc1ccc(-c2cnc3[nH]ccc3c2)cc1)NCCNS(=O)(=O)c1ccc(Cl)c(Cl)c1`, 4.07 nM.
As to `O=S(=O)(NCCNC/C=C/c1ccc(-c2cccnc2)cc1)c1ccc2[nH]ncc2c1`, the IC50 is 9.77 nM.
Same read-out and setting: the figure for `O=S(=O)(NCCNC/C=C/c1ccc(-c2cccnc2)cc1)c1cccc2ccccc12` is 61.7 nM.
Still for that read-out and setting: the result for `O=S(=O)(NCCNC/C=C/c1ccc(-c2ccc3ccccc3c2)cc1)c1cccc2cnccc12` reads more than 10000 nM; that for `O=S(=O)(NCCNCCCc1ccc(-c2cccnc2)cc1)c1cccc2cnccc12`, 8.91 nM; that for `O=S(=O)(NCCNCc1ccc(-c2cccnc2)cc1)c1cccc2cnccc12`, 158 nM.
Same read-out and setting: the result for `O=S(=O)(NCCNCCCc1ccc(-c2cnc3[nH]ccc3c2)cc1)c1ccc(Cl)c(Cl)c1` reads 7.41 nM; that for `O=C(CCc1ccc(-c2cnc3[nH]ccc3c2)cc1)NCCNS(=O)(=O)c1cccc(Cl)c1`, 1.91 nM; that for `Nc1ccccc1S(=O)(=O)NCCNC/C=C/c1ccc(-c2cccnc2)cc1`, 26.9 nM.
As to `O=S(=O)(NCCCCCCc1ccc(-c2cccnc2)cc1)c1cccc2cnccc12`, the IC50 was 170 nM.
The same measure, in the same setting: the result for `O=C(CCc1ccc(-c2cnc3[nH]ccc3c2)cc1)NCCNS(=O)(=O)c1ccc(F)cc1` reads 0.407 nM; that for `O=C(CCc1ccc(-c2cnc3[nH]ccc3c2)cc1)NCCNS(=O)(=O)c1cc(Cl)cc(Cl)c1`, 6.92 nM.
Still for that read-out and setting: the figure for `CNC(=O)c1ccc(-c2ccc(CCC(=O)NCCNS(=O)(=O)c3cccc4cnccc34)cc2)cn1` is more than 10000 nM; for `O=C1NCc2c1cccc2S(=O)(=O)NCCNC/C=C/c1ccc(-c2cccnc2)cc1` it is 20 nM.
Same read-out and setting: the figure for `O=C(NCCNC/C=C/c1ccc(-c2cccnc2)cc1)c1cccc2cnccc12` is more than 10000 nM; for `Cc1ccc(S(=O)(=O)NCCNC(=O)CCc2ccc(-c3cnc4[nH]ccc4c3)cc2)cc1` it is 2.14 nM; for `Nc1ncccc1-c1ccc(CCC(=O)NCCNS(=O)(=O)c2cccc3cnccc23)cc1` it is 151 nM.
With `O=C(CCc1ccc(-c2cnc3[nH]ccc3c2)cc1)NCCNS(=O)(=O)c1cccc2cnccc12`, the IC50 is 1.35 nM.
As for `O=S(=O)(NCCNCCCc1ccc(-c2cnc3[nH]ccc3c2)cc1)c1cccc2cnccc12`, the IC50 is 1.66 nM.
The same measure, in the same setting: the figure for `CN(C/C=C/c1ccc(-c2cccnc2)cc1)CCN(C)S(=O)(=O)c1cccc2cnccc12` is 126 nM; for `O=C(CCc1ccc(-c2cnc3[nH]ccc3c2)cc1)NCCNS(=O)(=O)c1ccccc1` it is 0.324 nM.
The same measure, in the same setting: the result for `CS(=O)(=O)NCCNC/C=C/c1ccc(-c2cccnc2)cc1` reads 646 nM; that for `CN(CCNC/C=C/c1ccc(-c2cccnc2)cc1)S(=O)(=O)c1cccc2cnccc12`, 182 nM.
On the same count and under the same terms, the figure for `O=C1NCc2cc(S(=O)(=O)NCCNC/C=C/c3ccc(-c4cccnc4)cc3)ccc21` is 18.2 nM.
For `O=S(=O)(NCCOC/C=C/c1ccc(-c2cccnc2)cc1)c1cccc2cnccc12`, the IC50 is 8.32 nM.
Same read-out and setting: the result for `COc1ccc(S(=O)(=O)NCCNCCCc2ccc(-c3cnc4[nH]ccc4c3)cc2)cc1` reads 2.4 nM; that for `Cc1ccc(S(=O)(=O)NCCNCCCc2ccc(-c3cnc4[nH]ccc4c3)cc2)cc1`, 2.04 nM.

System in another series: not listed separately
Nature of the series: Lipophilicity, log D of the compound at pH 7.4. It counts as physicochemical. To be noted: buffer.
The term logD denotes lipophilicity at a set pH, counting ionised and neutral species. Low values mean a more hydrophilic compound, high ones a more lipophilic compound. Compound `O=S(=O)(NCCNC/C=C/c1ccc(-c2cccnc2)cc1)c1cccc2cnccc12` showed a logD of 1.5.
